For data set [1], the system named is MDCK. Briefly: MDCK BBB Assay. The conditions noted are these: for % Permeable: MDCK BBB assay; for MDCK BBB Assay (Basolateral/Apical Peak Area Ratio) Mean: MDCK cells. Type of data set: in vitro ADME.
The target in data set [2] is T1, hCB1 (Homo sapiens, UniProt P21554). Briefly: functional fluorescent CB1 activated Gαq16-coupled intracellular calcium mobilization assay in CHO-K1 cells. The data set is classed as cell-based. Further details: expressed in transfected cells; host or cells: CHO-K1 (membranes). The conditions noted are these: average of 3-6 measurements, read-out: Apparent antagonist dissociation constant (Ke) at hCB1. On the technique in general: Calcium assays in cells follow changes in intracellular calcium, usually with a dye or a luminescent sensor.
T1 sequence (P21554 whole entry): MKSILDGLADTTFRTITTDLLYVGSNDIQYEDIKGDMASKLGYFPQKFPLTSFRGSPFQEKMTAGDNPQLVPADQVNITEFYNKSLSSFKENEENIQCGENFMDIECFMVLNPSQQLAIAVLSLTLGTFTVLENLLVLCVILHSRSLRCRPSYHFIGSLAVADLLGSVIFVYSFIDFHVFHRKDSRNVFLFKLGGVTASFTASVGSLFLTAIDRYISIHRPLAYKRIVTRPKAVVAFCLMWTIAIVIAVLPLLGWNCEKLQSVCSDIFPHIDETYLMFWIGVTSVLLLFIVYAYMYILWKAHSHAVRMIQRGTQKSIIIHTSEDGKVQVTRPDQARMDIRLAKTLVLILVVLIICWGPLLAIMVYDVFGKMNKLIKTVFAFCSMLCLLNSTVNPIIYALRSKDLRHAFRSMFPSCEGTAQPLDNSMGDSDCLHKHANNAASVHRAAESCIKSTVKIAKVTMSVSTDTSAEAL

In data set [3] the target is T1, hCB1. Description: radioligand displacement binding at CB1 (membranes of CHO-K1 cells over-expressing receptor). The settings on record: for CB2 Ki/CB1 Ki selectivity ratio: CB1 versus CB2. A general note: Loss of bound radioactivity is the signal in a displacement assay; it reports binding, not function.
Procedure: (§1) All compounds were characterized by H^1 NMR and evaluated using a calcium mobilization assay. […] Further characterization of select compounds was performed using radioligand displacement of [3H]1 and equilibrium dissociation constant (Ki) values were determined.
Data set [4] has as its target hCB2 (Homo sapiens, UniProt P34972). Briefly: radioligand displacement binding at CB2 ([3H]CP55940, membranes of CHO-K1 cells over-expressing receptor).
Procedure: as §1
Data set [5] is described as follows: in vivo brain penetration, brain and plasma levels by LC/MS/MS. The conditions noted are these: mouse, po, mice, cassette dosed orally at 2.5 mg/kg, read-out: Brain:Plasma Ratio. How it is done: Select compounds were chosen for in vivo studies to determine penetration into the CNS. Compounds were cassette dosed orally at 2.5 mg/kg in mice. Brain and plasma samples were collected at 1, 2, 4, and 24 hours post dose and samples were analyzed by LC/MS/MS (Table 5, below). Unperfused brains were used which contain a blood volume of approximately 4%.

In data set [6] the test system is mouse model of AS. Description: alcohol induced liver steatosis mouse model, Oil Red O staining of liver sections. The data set is classed as in vivo, C57BL/6J mice. An excerpt:
FIG. 1A-1B. […] (FIG. 1A) Representative liver sections from mice receiving control diet without ethanol+vehicle (left panel), ethanol containing diet+vehicle (center panel) or ethanol containing diet+98 (right panel).
Pathogen-free female C57BL/6J mice, aged 9 weeks (Jackson Laboratories, Bar Harbor, Me., USA) weighing 19-21 g were used in this study. C57BL/6 mice were offered solid PicoLab Certified Rodent LabDiet® 5053 (pellet) ad libitum during the acclimation period following which, all animals were switched to a Lieber-DeCarli 82′ Control (Catalog No: F1259SP, BioServ®) diet which was nutritionally complete. […] Digitized images of mouse liver sections (10 μm in thickness) were assessed semi-quantitatively for degree of steatosis using Image J software (NIH, Bethesda, Md.). Briefly, a 5 in^2 digital grid (Image J Command Menu: Plugin-Analyze-Grid) was placed on each image wherein lipid droplets in 6 grids per image were counted and the average number of oil droplets was recorded for each animal (n=6, per group). […] Statistical significance was determined through ANOVA between treatment and control groups using Graph Pad Prism 7.0 (GraphPad Software Inc., La Jolla, Calif., USA) at a confidence level of *p<0.001.
In contrast, the ethanol containing diet caused significant accumulation of lipid droplets (center panel in FIG. 1A). […] The data are quantified in FIG. 1B.

Data set [7] concerns alcoholic steatosis, AS. The settings on record: past studies; cited from earlier work.
Setting [8] is: read-out: Binding affinity (Ki) at hCB1, radioligand displacement, CHO-K1 membranes, average of 3-6 measurements.

“Also recorded” adds a separate entry of the source. Where two headings read alike, the source gives them in different places. Some results are limits rather than exact numbers.

Chain of hCB2 (P34972 whole entry, the tested form may be a part): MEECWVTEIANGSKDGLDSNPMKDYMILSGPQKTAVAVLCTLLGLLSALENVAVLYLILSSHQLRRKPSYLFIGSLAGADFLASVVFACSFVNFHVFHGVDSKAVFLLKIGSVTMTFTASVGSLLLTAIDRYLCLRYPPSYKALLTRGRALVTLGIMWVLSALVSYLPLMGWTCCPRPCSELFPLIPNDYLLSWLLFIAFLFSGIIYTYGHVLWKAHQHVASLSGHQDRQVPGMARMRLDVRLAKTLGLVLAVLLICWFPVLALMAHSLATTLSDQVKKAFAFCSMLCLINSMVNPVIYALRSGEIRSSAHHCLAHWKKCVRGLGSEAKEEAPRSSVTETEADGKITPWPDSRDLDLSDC

In the case of `O=S(=O)(NC1CCN(c2ncnc3c2nc(-c2ccccc2Cl)n3-c2ccc(Cl)cc2)CC1)c1ccc(F)cc1F` [Compound 5, N-{1-[8-(2-Chlorophenyl)-9-(4-chlorophenyl)-9H-purin-6-yl]piperidin-4-yl}-2,4-difluorobenzene-1-sulfonamide], the melting point (usually the temperature, or range, at which the solid turns liquid) was 232 to 233 °C. In data set [1], the “% Permeable” value amounted to 0% and the “MDCK BBB Assay (Basolateral/Apical Peak Area Ratio) Mean” value was found to be 0.0008. In addition, in data set [2], the Kb is 2 nM. Besides, in data set [3], the “CB2 Ki/CB1 Ki selectivity ratio” value stood at 26000. For the same compound, the Ki (in general, the equilibrium dissociation constant of an inhibitor or competing ligand from its target) in data set [3] (setting [8]) turned out to be 2 nM. Also, the affinity in data set [4] corresponds to a Ki of 53000 nM.

Turning to `O=C(Nc1ccccc1F)NC1CCN(c2ncnc3c2nc(-c2ccccc2Cl)n3-c2ccc(Cl)cc2)CC1` [Compound 19, 3-{1-[8-(2-Chlorophenyl)-9-(4-chlorophenyl)-9H-purin-6-yl]piperidin-4-yl}-1-(2-fluorophenyl)urea], the “% Permeable” value in data set [1] is given as 0%. Besides, the Kp in data set [5] is 0.03.

Turning to `N=C(NC1CCN(c2ncnc3c2nc(-c2ccccc2Cl)n3-c2ccc(Cl)cc2)CC1)c1ccc(F)cc1` [Compound 26, N-{1-[8-(2-chlorophenyl)-9-(4-chlorophenyl)-9H-purin-6-yl]piperidin-4-yl}-4-fluorobenzenecarboximidamide], in data set [1], the “% Permeable” value is listed as 0% and the “MDCK BBB Assay (Basolateral/Apical Peak Area Ratio) Mean” value came out at 0.0019. The Kp in data set [5] is 0.16. Moreover, in data set [2], the Kb was determined as 44 nM. For the same compound, in data set [3], the Ki was 520 nM and the “CB2 Ki/CB1 Ki selectivity ratio” value is reported as more than 11. Moreover, the Ki in data set [4] was more than 6000 nM.

On to `O=C(Nc1ccc(OC(F)F)nc1)N1CCN(c2ncnc3c2nc(-c2ccccc2Cl)n3-c2ccc(Cl)cc2)CC1` [Compound 44, 4-[8-(2-Chlorophenyl)-9-(4-chlorophenyl)-9H-purin-6-yl]-N-[6-(difluoromethoxy)pyridin-3-yl]piperazine-1-carboxamide], for which the melting point was in the range of 118 to 120 °C. Moreover, in data set [5], the Kp worked out at 0.18. For the same compound, the Ki in data set [3] (setting [8]) was 4 nM. Further, affinity in data set [4] was put at a Ki of 74000 nM.

Compound `FC(F)Oc1ccc(-n2c(-c3ccccc3Cl)nc3c(N4CCN(Cc5ccccc5Cl)CC4)ncnc32)cn1` [Compound 46, 8-(2-Chlorophenyl)-6-{4-[(2-chlorophenyl)methyl]piperazin-1-yl}-9-[6-(difluoromethoxy)pyridin-3-yl]-9H-purine] had a melting point of 147 to 149 °C. The Kb in data set [2] worked out at 27 nM. For the same compound, in data set [3], the Ki came to 7 nM and the “CB2 Ki/CB1 Ki selectivity ratio” value worked out at 34. The compound further had a Ki in data set [4] of 240 nM.

Regarding `CCCCC(=O)NC1(c2ccccc2)CCN(c2ncnc3c2nc(-c2ccncc2Cl)n3-c2ccc(Cl)cc2)CC1` [Compound 93, N-{1-[9-(4-chlorophenyl)-8-(3-chloropyridin-4-yl)-9H-purin-6-yl]-4-phenylpiperidin-4-yl}pentanamide], in data set [1], the “% Permeable” value came to 0% and the “MDCK BBB Assay (Basolateral/Apical Peak Area Ratio) Mean” value is 0.000. Moreover, in data set [2], the Kb turned out to be 18.5 nM. Further, in data set [3], the Ki was 17.9 nM and the “CB2 Ki/CB1 Ki selectivity ratio” value stood at 46. Besides, the Ki in data set [4] was found to be 830 nM.

For `Clc1ccc(-n2c(-c3ccccc3Cl)nc3c(N4CCN(Cc5ccccc5Cl)CC4)ncnc32)cc1` [Compound 98, 6-[4-(2-Chlorobenzyl)piperazin-1-yl]-8-(2-chlorophenyl)-9-(4-chlorophenyl)-9H-purine], the Kp in data set [5] was 0.06. For the same compound, the “hepatic lipid accumulation / liver steatosis (Oil Red O lipid droplets)” value in data set [6] (ethanol diet-fed mice, 1.25 mg/kg twice daily by oral gavage, two weeks, vs ethanol+vehicle, 1.25 mg/kg) is on record as “significantly reduced hepatic lipid accumulation; also recorded: statistically significant reduction of liver steatosis”. In data set [6] (mouse model of alcoholic steatosis), the “disease progression/development in a mouse model of AS” value is reported as “block disease progression/development”.

On to `Clc1ccc(-n2c(-c3ccccc3Cl)nc3c(N4CCN(Cc5cccc(Cl)c5)CC4)ncnc32)cc1` [Compound 99, 6-[4-(3-Chlorobenzyl)piperazin-1-yl]-8-(2-chlorophenyl)-9-(4-chlorophenyl)-9H-purine], for which, in data set [5], the Kp was determined as 0.09.

Take `Cc1c(C(=O)NN2CCCCC2)nn(-c2ccc(Cl)cc2Cl)c1-c1ccc(Cl)cc1` [rimonabant]: in data set [7], the “reduction of alcoholic steatosis (AS)” value is recorded as “effective in reducing AS”.
